Source: patent US20150168420A1, “BIOORTHOGONAL CHEMICAL INDUCERS OF REVERSIBLE DIMERIZATION FOR CONTROL OF PROTEIN FUNCTION IN CELLS” (MAX-PLANCK-GESELLSCHAFT ZUR FÖRDERUNG DER WISSENSCHAFTEN …, priority 2012, published 2015)

Key:
eDHFR and FKBP(F36V) = eDHFR and FKBP(F36V) (UniProt P0ABQ4+P62942, F37V); test: Size exclusion chromatography and SDS-PAGE of eDHFR / FKBP(F36V) mixture with ligand; type: binding
Experimental: FIG. 1: Efficiency and specificity of SLF′-TMP (compound 13) binding (comp. example 2). • In the absence of SLF′-TMP (solid line) or in the presence of 100 μM SLF′-TMP (compound 13, dashed line). • a) size exclusion chromatography profile • b) SDS-PAGE analysis
A size exclusion chromatography profile of a mixture of 100 μM eDHFR and FKBP(F36V) was performed in the absence or the presence of 100 μM SLF′-TMP (compound 13) (see FIG. 1a).
A SDS-PAGE analysis of fractions from the gel filtration was carried out in the absence and the presence of the ligand SLF′-TMP (compound 13), respectively (see FIG. 1b).

[1] = target: ECFP-eDHFR and YFP-FKBP(F36V) (UniProt P0ABQ4+P62942, F37V); test: FRET titration of ligand-induced heterodimerization of recombinant fusion proteins; type: binding; details: 400 nM ECFP-eDHFR and 400 nM YFP-FKBP(F36V)

Structure (SMILES): CCC(C(=O)N1CCCCC1C(=O)O[C@H](CCc1ccc(OC)c(OC)c1)c1cccc(OCC(=O)NCCCOCCOCCOCCCNC(=O)COc2c(OC)cc(Cc3cnc(N)nc3N)cc2OC)c1)c1cc(OC)c(OC)c(OC)c1 (stereo partly shown) [SLF′-TMP]
- binding to FKBP(F36V) and eDHFR by size exclusion chromatography (eDHFR and FKBP(F36V); 100 μM eDHFR and FKBP(F36V), 100 μM ligand): binds effectively
- binding to FKBP(F36V) and eDHFR by SDS-PAGE of gel filtration fractions (eDHFR and FKBP(F36V); presence versus absence of ligand): binds to FKBP(F36V) and eDHFR
- FRET signal (ratio of fluorescence 523 nm / 475 nm) upon titration [1]: dose-dependent increase
- Kd ([1]; quadratic fit, read-out: dissociation constant Kd from FRET titration): 120 ± 40 nM
